Measurements reported in patent US7786127B2, “Benzimidazole thiophene compounds” (Glaxo SmithKline LLC, priority 2005, dated 2010).

Tests used:
Type in all cases: cell-based
MCF7 = assay: Methylene blue growth inhibition assay, MCF7; conditions: Homo sapiens, 72 h
Experimental: (§1) Generally, exponentially growing cell lines of different tumor origins, cultured in appropriate media containing 10% fetal bovine serum at 37° C. in a 5% CO2 incubator were plated at low density (less than 2000 cells/well) in 96-well plates. Twenty four hours post-plating, cells were treated with different concentrations of test compounds ranging from 10 uM to 0.04 nM. Several wells were left untreated as a control. Seventy two hours post-treatment, cell numbers were determined using 10 μl per well of methylene blue (Sigma M9140) (0.5% in 50:50 Ethanol:water). […] Plates were read on a microplate reader, measuring the OD at 620 nm. […]
(§2) In one assay, normal human foreskin fibroblasts (HFF), human colon (HCT116, RKO), lung (H460, A549) and breast (MCF7) tumor cell lines were cultured in high glucose DMEM (Life Technologies) containing 10% fetal bovine serum (FBS) at 37° C. in a humidified 5% CO2, 95% air incubator. Cells were harvested using trypsin/EDTA, counted using a haemocytometer, and plated in 100 μL of culture media per well, at the following densities, in a 96-well tissue culture plate (Falcon 3075): HFF 5,000 cells/well, HCT116 3,000 cells/well, RKO 2,500 cells/well, H460 2,500 cells/well, A549 5,000 cells/well, MCF7 4,000 cells/well. […] Optical density at 620 nm was measured on a microplate reader. […]

H460 = assay: Methylene blue growth inhibition assay, H460; conditions: Homo sapiens, NCI-H460, 72 h
Experimental: as §1, §2

RKO = assay: Methylene blue growth inhibition assay, RKO; conditions: Homo sapiens, 72 h
Experimental: as §1, §2

A549 = assay: Methylene blue growth inhibition assay, A549; conditions: Homo sapiens, 72 h
Experimental: as §1, §2

[1] = test system: normal human foreskin fibroblasts (HFF); assay: Methylene blue growth inhibition assay, HFF; conditions: Fibroblast, 72 h
Experimental: as §1, §2

HCT116 = assay: Methylene blue growth inhibition assay, HCT116; conditions: Homo sapiens, HCT-116, 72 h
Experimental: as §1, §2

SMILES	IC50 (MCF7) [nM]	IC50 (H460) [nM]	IC50 (RKO) [nM]	IC50 (A549) [nM]	IC50 [1] [nM]	IC50 (HCT116) [nM]
C[C@@H](Oc1cc(-n2cnc3ccc(OC4CCN(C)CC4)cc32)sc1C(N)=O)c1ccccc1C(F)(F)F [Example 7, 5-{6-[(1-Methyl-4-piperidinyl)oxy]-1H-benzimidazol-1-yl}-3-({(1R)-1-[2-(trifluoromethyl)phenyl]ethyl}oxy)-2-thiophenecarboxamide]	< 100	< 100	< 100	< 100	100 to 1000	< 100
C[C@@H](Oc1cc(-n2cnc3ccc(OC4CCN(C)CC4)cc32)sc1C(N)=O)c1ccccc1Cl [Example 8, 3-{[(1R)-1-(2-Chlorophenyl)ethyl]oxy}-5-{6-[(1-methyl-4-piperidinyl)oxy]-1H-benzimidazol-1-yl}-2-thiophenecarboxamide]		< 100	< 100	< 100	< 100	< 100
